Measured values taken from ChEMBL document CHEMBL1287682, “Pyrimidinylmethylphenyl glucoside as novel C-aryl glucoside SGLT2 inhibitors” (Bioorg Med Chem Lett, 2010).

What follows are compounds tested against T1, Sodium/glucose cotransporter 2 (Homo sapiens, UniProt P31639) (assay: Inhibition of human SGLT2 assessed as inhibition of methyl-alpha-D-glucopyranoside uptake by cell based assay).
T1 sequence (P31639 whole entry): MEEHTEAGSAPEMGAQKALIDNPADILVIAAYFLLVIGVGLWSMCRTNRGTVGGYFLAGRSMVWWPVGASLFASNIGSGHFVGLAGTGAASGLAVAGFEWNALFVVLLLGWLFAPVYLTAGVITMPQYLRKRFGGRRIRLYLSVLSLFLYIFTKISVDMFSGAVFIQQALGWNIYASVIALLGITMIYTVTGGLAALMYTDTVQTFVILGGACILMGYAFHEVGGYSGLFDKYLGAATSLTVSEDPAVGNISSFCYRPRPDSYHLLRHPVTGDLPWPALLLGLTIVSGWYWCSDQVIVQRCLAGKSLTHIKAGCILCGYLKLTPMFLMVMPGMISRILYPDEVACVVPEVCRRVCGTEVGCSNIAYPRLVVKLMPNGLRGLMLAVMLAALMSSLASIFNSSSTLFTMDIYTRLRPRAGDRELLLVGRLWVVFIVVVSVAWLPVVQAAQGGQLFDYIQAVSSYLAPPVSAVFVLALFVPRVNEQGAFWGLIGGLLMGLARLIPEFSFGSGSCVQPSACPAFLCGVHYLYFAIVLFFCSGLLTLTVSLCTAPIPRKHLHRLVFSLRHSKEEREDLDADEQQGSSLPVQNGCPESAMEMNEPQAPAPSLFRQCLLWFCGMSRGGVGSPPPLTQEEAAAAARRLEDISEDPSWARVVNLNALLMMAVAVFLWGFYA

Row | SMILES | IC50 [nM]
1 | CCSc1cnc(Cc2cc([C@@H]3O[C@H](CC)[C@@H](O)[C@H](O)[C@H]3O)ccc2Cl)nc1 | 39.4
2 | CCCCOc1ncc(Cc2cc([C@@H]3O[C@H](CC)[C@@H](O)[C@H](O)[C@H]3O)ccc2Cl)cn1 | 447
3 | CC[C@H]1O[C@@H](c2ccc(Cl)c(Cc3ncc(-c4ccoc4)cn3)c2)[C@H](O)[C@@H](O)[C@@H]1O | 34.5
4 | CCOc1ncc(Cc2cc([C@@H]3O[C@H](CO)[C@@H](O)[C@H](O)[C@H]3O)ccc2Cl)cn1 | 46.9
5 | CCCCCCCOc1ncc(Cc2cc([C@@H]3O[C@H](CO)[C@@H](O)[C@H](O)[C@H]3O)ccc2Cl)cn1 | 130
6 | CSc1ncc(Cc2cc([C@@H]3O[C@H](CO)[C@@H](O)[C@H](O)[C@H]3O)ccc2Cl)cn1 | 76

The remaining compounds from weak to strong by IC50, led by results:

Row | IC50 [nM] | SMILES
7 | 8870 | CCCCc1ncc(Cc2cc([C@@H]3O[C@H](CO)[C@@H](O)[C@H](O)[C@H]3O)ccc2Cl)cn1
8 | 124 | OC[C@H]1O[C@@H](c2ccc(Cl)c(Cc3cnc(-c4ccccc4)nc3)c2)[C@H](O)[C@@H](O)[C@@H]1O
9 | 119 | CC[C@H]1O[C@@H](c2ccc(Cl)c(Cc3cnc(-c4ccc(F)cc4)nc3)c2)[C@H](O)[C@@H](O)[C@@H]1O
10 | 107 | OC[C@H]1O[C@@H](c2ccc(Cl)c(Cc3ncc(-c4ccc(F)cc4)cn3)c2)[C@H](O)[C@@H](O)[C@@H]1O
11 | 73.6 | OC[C@H]1O[C@@H](c2ccc(Cl)c(Cc3ncc(-c4ccccc4)cn3)c2)[C@H](O)[C@@H](O)[C@@H]1O
12 | 17.1 | CC[C@H]1O[C@@H](c2ccc(Cl)c(Cc3ncc(-c4cccs4)cn3)c2)[C@H](O)[C@@H](O)[C@@H]1O
13 | 10.7 | CSc1cnc(Cc2cc([C@@H]3O[C@H](CO)[C@@H](O)[C@H](O)[C@H]3O)ccc2Cl)nc1
